pKd: −log10 of the molar value.
What was measured:
[1] = biological target: GDP-bound KRAS wild-type protein (Homo sapiens, UniProt P01116); experiment: Binding to KRAS by surface plasmon resonance (SPR), Single Cycle Kinetics; details: SPR, Single Cycle Kinetics, GDP-bound KRAS wild-type protein; read-out: KRAS KD
[2] = biological target: GDP-bound NRAS wild-type protein (Homo sapiens, UniProt P01111); experiment: Binding to NRAS by surface plasmon resonance (SPR), Single Cycle Kinetics; details: SPR, GDP-bound NRAS wild-type protein vs GDP-bound KRAS wild-type protein
[3] = biological target: GDP-bound HRAS wild-type protein (Homo sapiens, UniProt P01112); experiment: Binding to HRAS by surface plasmon resonance (SPR), Single Cycle Kinetics; details: SPR, GDP-bound HRAS wild-type protein vs GDP-bound KRAS wild-type protein
GDP-bound HRAS wild-type protein, sequence (P01112 whole entry): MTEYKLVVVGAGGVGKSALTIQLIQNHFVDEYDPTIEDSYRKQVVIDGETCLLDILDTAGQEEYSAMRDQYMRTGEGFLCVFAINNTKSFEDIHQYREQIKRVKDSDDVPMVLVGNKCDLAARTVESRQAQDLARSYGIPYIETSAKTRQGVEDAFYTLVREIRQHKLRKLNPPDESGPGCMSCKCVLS

GDP-bound NRAS wild-type protein, sequence (P01111 whole entry): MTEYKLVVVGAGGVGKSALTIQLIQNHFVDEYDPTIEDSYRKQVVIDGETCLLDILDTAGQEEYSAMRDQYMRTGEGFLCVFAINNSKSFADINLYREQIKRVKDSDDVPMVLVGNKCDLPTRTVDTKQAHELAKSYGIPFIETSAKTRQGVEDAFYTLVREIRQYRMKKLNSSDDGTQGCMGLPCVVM
GDP-bound KRAS wild-type protein, sequence (P01116 whole entry): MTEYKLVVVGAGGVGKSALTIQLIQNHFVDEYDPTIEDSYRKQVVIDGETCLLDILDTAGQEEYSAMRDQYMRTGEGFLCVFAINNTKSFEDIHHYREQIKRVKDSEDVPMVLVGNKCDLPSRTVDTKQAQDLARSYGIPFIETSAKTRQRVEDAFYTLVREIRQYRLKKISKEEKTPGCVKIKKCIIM

SMILES | pKd [1] | NRAS/KRAS (ratio of KD value for NRAS to KD value for KRAS) [2] | HRAS/KRAS (ratio of KD value for HRAS to KD value for KRAS) [3]
CC[C@H](C)[C@@H]1NC(=O)[C@H](CC(C)C)N(C)C(=O)C[C@@H](C(=O)N2CCOCC2)N(C)C(=O)[C@H](C2CCCC2)N(C)C(=O)C2(CCC2)NC(=O)[C@@H]2CCCN2C(=O)[C@H](CCc2ccc(C(F)(F)F)c(Cl)c2)NC(=O)CN(C)C(=O)[C@H](Cc2ccc(F)cc2)N2CCCCC[C@@H](C2=O)N(C)C(=O)CN(C)C1=O [PP0967] | 9.48 | B (a compound having 3 or more and less than 10 is denoted as B) | B (a compound having 3 or more and less than 10 is denoted as B)
CC[C@H](C)[C@@H]1NC(=O)[C@H](CC(C)C)N(C)C(=O)C[C@@H](C(=O)N2CCOCC2)N(CC)C(=O)[C@H](C2CCCC2)N(C)C(=O)C2(CCCC2)NC(=O)[C@@H]2CCCN2C(=O)[C@H](CCc2ccc(C(F)(F)F)c(Cl)c2)NC(=O)CN(C)C(=O)[C@H](Cc2ccc(F)cc2)N2CCCCC[C@@H](C2=O)N(C)C(=O)CN(C)C1=O [PP0970] | 8.66 | B (a compound having 3 or more and less than 10 is denoted as B) | B (a compound having 3 or more and less than 10 is denoted as B)
CC[C@H](C)[C@@H]1NC(=O)[C@H](CC(C)C)N(C)C(=O)C[C@@H](C(=O)N(C)C)N(C)C(=O)[C@H](C2CCCC2)N(C)C(=O)C2(CCC2)NC(=O)[C@@H]2CC(F)(F)CN2C(=O)[C@H](CCc2ccc(C(F)(F)F)c(Cl)c2)NC(=O)CN(C)C(=O)[C@H](Cc2ccc(F)cc2)N2CCCCC[C@@H](C2=O)N(C)C(=O)CN(C)C1=O [PP0973] | 10.07 | B (a compound having 3 or more and less than 10 is denoted as B) | B (a compound having 3 or more and less than 10 is denoted as B)
CCO[C@@H]1C[C@H]2C(=O)NC3(CCC3)C(=O)N(C)[C@@H](C3CCCC3)C(=O)N(CCC3CCCC3)[C@H](C(=O)N(C)C)CC(=O)N(C)[C@@H](CC(C)C)C(=O)N[C@@H]([C@@H](C)CC)C(=O)N(C)CC(=O)N(C)[C@H]3CCCCCN(C3=O)[C@@H](Cc3ccc(F)cc3)C(=O)N(C)CC(=O)N[C@@H](CCc3ccc(C(F)(F)F)c(Cl)c3)C(=O)N2C1 [PP0976] | 8.32 | B (a compound having 3 or more and less than 10 is denoted as B) | B (a compound having 3 or more and less than 10 is denoted as B)
CC[C@H](C)[C@@H]1NC(=O)[C@H](CC(C)C)N(C)C(=O)C[C@@H](C(=O)N(C)C)N(CCC2CCCC2)C(=O)[C@H](C2CCCC2)N(C)C(=O)C2(CCC2)NC(=O)[C@@H]2CC(F)(F)CN2C(=O)[C@H](CCc2ccc(C(F)(F)F)c(Cl)c2)NC(=O)CN(C)C(=O)[C@H](Cc2ccc(F)cc2)N2CCCCC[C@@H](C2=O)N(C)C(=O)CN(C)C1=O [PP0977] | 8.11 | B (a compound having 3 or more and less than 10 is denoted as B) | A (a compound having 10 or more and less than 20 is denoted as A)
CCO[C@@H]1C[C@H]2C(=O)NC3(CCC3)C(=O)N(C)[C@@H](C3CCCC3)C(=O)N(C)[C@H](C(=O)N(C)C)CC(=O)N(C)[C@@H](CC)C(=O)N[C@@H]([C@@H](C)CC)C(=O)N(C)CC(=O)N(C)[C@H]3C/C=C\CCN(C3=O)[C@@H](Cc3ccc(C(F)(F)F)cc3)C(=O)N(C)CC(=O)N[C@@H](CCc3ccc(C(F)(F)F)c(Cl)c3)C(=O)N2C1 [PP0978, (2S,8S,12R,14S,20S,23S,27S,30S,36S,38Z)-8-[2-[3-chloro-4-(trifluoromethyl)phenyl]ethyl]-20-cyclopentyl-12-ethoxy-27-ethyl-N,N,4,19,22,26,32,35-octamethyl-30-[(1S)-1-methylpropyl]-3,6,9,15,18,21,25,28,31,34,42-undecaoxo-2-[[4-(trifluoromethyl)phenyl]methyl]spiro[1,4,7,10,16,19,22,26,29,32,35-undecazatricyclo[34.5.1.0^10,14]dotetracont-38-ene-17,1′-cyclobutane]-23-carboxamide] | 10.06 | A (a compound having 10 or more and less than 20 is denoted as A) | B (a compound having 3 or more and less than 10 is denoted as B)
CCO[C@@H]1C[C@H]2C(=O)NC3(CCC3)C(=O)N(C)[C@@H](C3CCCC3)C(=O)N(CC)[C@H](C(=O)N(C)C)CC(=O)N(C)[C@@H](CC)C(=O)N[C@@H]([C@@H](C)CC)C(=O)N(C)CC(=O)N(C)[C@H]3C/C=C\CCN(C3=O)[C@@H](Cc3ccc(C(F)(F)F)cc3)C(=O)N(C)CC(=O)N[C@@H](CCc3cc(F)c(C(F)(F)F)c(F)c3)C(=O)N2C1 [PP0980] | 9.06 | A (a compound having 10 or more and less than 20 is denoted as A) | B (a compound having 3 or more and less than 10 is denoted as B)
CCO[C@@H]1C[C@H]2C(=O)NC3(CCC3)C(=O)N(C)[C@@H](C3CCCC3)C(=O)N(CCC3CCCC3)[C@H](C(=O)N3CCOCC3)CC(=O)N(C)[C@@H](CC)C(=O)N[C@@H]([C@@H](C)CC)C(=O)N(C)CC(=O)N(C)[C@H]3C/C=C\CCN(C3=O)[C@@H](Cc3ccc(C(F)(F)F)cc3)C(=O)N(C)CC(=O)N[C@@H](CCc3cc(F)c(C(F)(F)F)c(F)c3)C(=O)N2C1 [PP0981] | 7.96 | AA (a compound having 20 or more is denoted as AA) | A (a compound having 10 or more and less than 20 is denoted as A)
CCO[C@@H]1C[C@H]2C(=O)NC3(CCC3)C(=O)N(C)[C@@H](C3CCCC3)C(=O)N(CCC3CCCC3)[C@H](C(=O)N(C)C)CC(=O)N(C)[C@@H](CC)C(=O)N[C@@H]([C@@H](C)CC)C(=O)N(C)CC(=O)N(C)[C@H]3C/C=C\CCN(C3=O)[C@@H](Cc3ccc(C(F)(F)F)cc3)C(=O)N(C)CC(=O)N[C@@H](CCc3cc(F)c(C(F)(F)F)c(F)c3)C(=O)N2C1 [PP0982] | 9.00 | AA (a compound having 20 or more is denoted as AA) | A (a compound having 10 or more and less than 20 is denoted as A)
CCO[C@@H]1C[C@H]2C(=O)NC3(CCC3)C(=O)N(C)[C@@H](C3CCCC3)C(=O)N(C)[C@H](C(=O)N(C)C)CC(=O)N(C)[C@@H](CC)C(=O)N[C@@H]([C@@H](C)CC)C(=O)NCC(=O)N(C)[C@H]3C/C=C\CCN(C3=O)[C@@H](Cc3ccc(C(F)(F)F)cc3)C(=O)N(C)CC(=O)N[C@@H](CCc3cc(F)c(C(F)(F)F)c(F)c3)C(=O)N2C1 [PP0983, (2S,8S,12R,14S,20S,23S,27S,30S,36S,38Z)-20-cyclopentyl-8-[2-[3,5-difluoro-4-(trifluoromethyl)phenyl]ethyl]-12-ethoxy-27-ethyl-N,N,4,19,22,26,35-heptamethyl-30-[(1S)-1-methylpropyl]-3,6,9,15,18,21,25,28,31,34,42-undecaoxo-2-[[4-(trifluoromethyl)phenyl]methyl]spiro[1,4,7,10,16,19,22,26,29,32,35-undecazatricyclo[34.5.1.0^10,14]dotetracont-38-ene-17,1′-cyclobutane]-23-carboxamide] | 10.11 | A (a compound having 10 or more and less than 20 is denoted as A) | A (a compound having 10 or more and less than 20 is denoted as A)
CCO[C@@H]1C[C@H]2C(=O)NC3(CCC3)C(=O)N(C)[C@@H](C3CCCC3)C(=O)N(C)[C@H](C(=O)N(C)C)CC(=O)N(C)[C@@H](CC)C(=O)N[C@@H]([C@@H](C)CC)C(=O)N3CC[C@H]3C(=O)N(C)[C@H]3C/C=C\CCN(C3=O)[C@@H](Cc3ccc(C(F)(F)F)cc3)C(=O)N(C)CC(=O)N[C@@H](CCc3cc(F)c(C(F)(F)F)c(F)c3)C(=O)N2C1 [PP0984] | 9.55 | A (a compound having 10 or more and less than 20 is denoted as A) | A (a compound having 10 or more and less than 20 is denoted as A)
CCO[C@@H]1C[C@H]2C(=O)NC3(CCC3)C(=O)N(C)[C@@H](C3CCCC3)C(=O)N(C)[C@H](C(=O)N(C)C)CC(=O)N(C)[C@@H](CC)C(=O)N[C@@H]([C@@H](C)CC)C(=O)N(C)CC(=O)N(C)[C@H]3CCCCN(C3=O)[C@@H](Cc3ccc(C(F)(F)F)cc3)C(=O)N(C)CC(=O)N[C@@H](CCc3cc(Cl)c(C(F)(F)F)c(Cl)c3)C(=O)N2C1 [PP0985] | 10.66 | C (A compound having a KD ratio of 0.1 or more and less than 3 is denoted as C) | C (A compound having a KD ratio of 0.1 or more and less than 3 is denoted as C)
CCO[C@@H]1C[C@H]2C(=O)NC3(CCC3)C(=O)N(C)[C@@H](C3CCCC3)C(=O)N(C)[C@H](C(=O)N(C)C)CC(=O)N(C)[C@@H](CC)C(=O)N[C@@H]([C@@H](C)CC)C(=O)N(C)CC(=O)N(C)[C@H]3CCCCN(C3=O)[C@@H](Cc3ccc(C(F)(F)F)cc3)C(=O)N(C)CC(=O)N[C@@H](CCc3ccc(OC(F)F)c(F)c3)C(=O)N2C1 [PP0986] | 9.57 | C (A compound having a KD ratio of 0.1 or more and less than 3 is denoted as C) | C (A compound having a KD ratio of 0.1 or more and less than 3 is denoted as C)
CCO[C@@H]1C[C@H]2C(=O)NC3(CCC3)C(=O)N(C)[C@@H](C3CCCC3)C(=O)N(C)[C@H](C(=O)N(C)C)CC(=O)N(C)[C@@H](CC)C(=O)N[C@@H]([C@@H](C)CC)C(=O)N(C)CC(=O)N(C)[C@H]3CCCCN(C3=O)[C@@H](Cc3ccc(C(F)(F)F)cc3)C(=O)N(C)CC(=O)N[C@@H](CCc3ccc(Cl)c(Cl)c3)C(=O)N2C1 [PP0987] | 10.62 | C (A compound having a KD ratio of 0.1 or more and less than 3 is denoted as C) | C (A compound having a KD ratio of 0.1 or more and less than 3 is denoted as C)
